Measurements reported in patent US5187195A, “Anthraquinone derivatives and preparation thereof” (Fujisawa Pharmaceutical Co., Ltd., priority 1989, dated 1993).

How the values were obtained:
[1] = target: T1, crude receptor membrane fractions of porcine aorta (^125 I-endothelin binding) (Sus scrofa, UniProt Q29010); experiment: Radioligand binding assay (^125 I-Endothelin binding to porcine aorta membrane fractions); conditions: for IC50: concentration required to compete with ^125 I-endothelin (1.67×10^-11 M) for binding to porcine aorta membrane fractions by 50%, 60 minutes, room temperature, pH 7.5
T1 construct: tissue Pel-Freez Biologicals (U.S.A.); host or cells: porcine aorta, crude membrane fractions
T1 sequence (Q29010 21-427): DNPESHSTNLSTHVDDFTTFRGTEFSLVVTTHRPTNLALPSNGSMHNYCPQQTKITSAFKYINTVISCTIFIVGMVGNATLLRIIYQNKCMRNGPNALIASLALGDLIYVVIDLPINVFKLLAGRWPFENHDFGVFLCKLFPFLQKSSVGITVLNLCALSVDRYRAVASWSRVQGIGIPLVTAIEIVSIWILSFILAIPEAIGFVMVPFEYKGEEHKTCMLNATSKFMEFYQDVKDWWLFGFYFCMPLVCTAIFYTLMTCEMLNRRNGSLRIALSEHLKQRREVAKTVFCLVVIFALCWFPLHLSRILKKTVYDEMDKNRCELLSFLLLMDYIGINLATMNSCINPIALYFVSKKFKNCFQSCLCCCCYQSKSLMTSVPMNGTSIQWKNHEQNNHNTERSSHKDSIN
Protocol: Radioligand Binding Assay
(a) Preparation of crude receptor membrane fractions
Porcine aorta was purchased from Pel-Freez Biologicals (U.S.A.) and stored at -80° C. until use.
Porcine aorta (50 g) was thawed and dissected free from fatty tissue, minced with scissors and then homogenized with a polytron (Brinkmann PT-20, maximal speed for 3×10 sec) in 100 ml buffer (0.25 M sucrose, 10 mM Tris-HCl, 0.1 mM EDTA, pH 7.5).
The homogenate was centrifuged at 10,000 g for 20 minutes at 4° C.
The supernatant, containing the plasma membrane fraction, was centrifuged at 100,000 g for 60 minutes at 4° C., and then resultant pellets were referred to as crude membrane fractions.
The pellets were resuspended in 25 ml of binding assay buffer (50 mM Tris-HCl, 100 mM NaCl, 5 mM MgCl2, 1.5 μg/ml phenylmethylsulfonyl fluoride (PMSF), 120 μg/ml bacitracin, 12 μg/ml leupepcin, 6 μg/ml chymostain, 0.1% bovine serum albumin (BSA), pH 7.5)
The aorta membrane fractions were stored at -80° C. until use.
(b) ^125 I-Endothelin Binding Assay
^125 I-Endothelin (1.67×10^-11 M) (Amersham Japan, specific activity: 2000 Ci/m mol) was incubated with 50 μl of the aorta membrane fractions in binding assay buffer at room temperature (20°-22° C.) for 60 minutes in a final volume of 250 μl.
After incubation, the incubation mixture were filtered through Glass-fiber GF/C filter (pretreated with 0.1% polyethylene imine for 3 hours prior to use) using cell harvester (Brandel M-245). The filters were then washed ten times with a total of 3 ml of the washing buffer (50 mM Tris-HCl, pH 7.5) at 0° C. The filters were counted in a gamma counter (Packard Auto Gamma Model 5650).
The activity of test compounds was expressed as IC50 value, i.e. concentration required to compete with ^125 I-endothelin for binding to prorcine aorta membrane fractions by 50%.

[2] = tested on: contraction response of rabbit thoracic aorta induced by endothelin; experiment: Effect on rabbit aorta contraction response of endothelin (isolated strips); design: species or system rabbit (male albino); conditions: Oryctolagus cuniculus, endothelin 3.2×10^-9 M, % inhibition of maximum contraction, compound added after full contraction; for inhibition at 100 µM: 1 × 10^-4 M; for inhibition at 10 µM: 1 × 10^-5 M
Protocol: Effect of FR901366 Substance and FR901367 Substance on Rabbit Aorta of Contraction Response of Endothelin
Thoracic aorta were isolated from freshly killed male albino rabbits (11 weeks old) and cut into 25 mm strips with the intima denuded. After removing fatty tissues, these arterial segments (2 mm width and 25 mm length) were suspended in 25 ml organ chambers filled with Krebs-Ringer solution (113 mM NaCl, 4.8 mM KCl, 2.2 mM CaCl2, 1.2 mM MgCl2, 25 mM NaHCO3, 1.2 mM KH2 PO4, 5.5 mM glucose) maintained at 37° C. and gassed with 95% O2 /5% CO2.
A preload of 1 g was applied after the aorta had been conditioned by application of increasing concentration of KCl. Contractions were measured as an increase in isometric tension.
The test compound was tested against contraction response of endothelin (3.2×10^-9 M). Synthetic endothelin was obtained from Peptide Institute Inc. (Osaka, Japan). The test compound substance was added after the full contraction response induced endothelin.
The activity of the test compounds is expressed as the percentage inhibition of maximum contraction response induced by endothelin and shown in Table 7.

[3] = tested on: endothelin induced pressor response; experiment: In vivo pressor effect in conscious rats (inhibition of endothelin induced pressor response); design: species or system rat (male Wister); conditions: 10 mg/kg i.v., 3 minutes before endothelin 2.4 μg/kg i.v., three rats
Protocol: Assay of In Vivo Pressor Effect in Conscious Rats
Male Wister rats (10 weeks old) were used. The mean arterial blood pressure was recorded from femoral artery via polyethylene catheter connected to the pressure transducer which was coupled to a Biophysiograph 180 system (Nihondenki-San-Ei Instrument Co., Ltd.).
FR901366 substance and endothelin were dissolved in saline and injected in bolus (0.2 ml) through polyethylene cateter inserted via femoral vein.
FR901366 substance was administered 3 minutes before the injection of endothelin. Inhibitory activity of FR90136 substance (10 mg/kg, i. v.) against endothelin (2.4 μg/kg, i. v.) induced pressor response was evaluated with a group of three rats and shown in Table 8.

Solubility = assay type: physicochemical

CC(=O)NC(CSC12CCC3(O)CC(C)=CC(=O)C3(O)C1(O)C(=O)c1cccc(O)c1C2=O)C(=O)O (centres unmarked) [FR901366]
IC50 [1]: 5.97 µM
inhibition at 100 µM [2]: 39%
inhibition at 10 µM [2]: 15%
Inhibition of endothelin pressor response ([3]; 5 min after administration): 27.2%
Inhibition of endothelin pressor response ([3]; 10 min after administration): 50.0%
Inhibition of endothelin pressor response ([3]; 20 min after administration): 63.3%
Inhibition of endothelin pressor response ([3]; 30 min after administration): 53.8%
Inhibition of endothelin pressor response ([3]; 60 min after administration): 66.6%
Inhibition of endothelin pressor response ([3]; 120 min after administration): 50.0%
Solubility (Solubility; acetone): soluble
Solubility (Solubility; chloroform): sparingly soluble
Solubility (Solubility; hexane): insoluble
Solubility (Solubility; methanol): soluble
Solubility (Solubility; water): insoluble

CC1=CC(=O)C2(O)C(O)(CCC3(SCC(NC(=O)OC(C)(C)C)C(=O)O)C(=O)c4c(O)cccc4C(=O)C32O)C1 (centres unmarked) [FR131662]
IC50 [1]: 4.33 µM

COC(=O)C(CSC12CCC3(O)CC(C)=CC(=O)C3(O)C1(O)C(=O)c1cccc(O)c1C2=O)NC(C)=O (centres unmarked) [FR134624]
IC50 [1]: 10.5 µM

CC(=O)NC(CSC12CCC3(O)CC(C)=CC(=O)C3(O)C1(O)C(=O)c1cccc(O)c1C2=O)C(=O)NCCO (centres unmarked) [FR134761]
IC50 [1]: 10.3 µM

COC(=O)C(CSC12C(=O)c3c(O)cccc3C(=O)C1(O)C1(O)C(=O)C=C(C)CC1(O)CC2OC(C)=O)NC(C)=O (centres unmarked) [FR129796]
IC50 [1]: 13.5 µM

CC1=CC(=O)C2(O)C(O)(CCC3(SCC(NC(=O)Cc4ccc(Cl)cc4)C(=O)O)C(=O)c4c(O)cccc4C(=O)C32O)C1 (centres unmarked) [FR131663]
IC50 [1]: 38.7 µM

CC1=CC(=O)C2(O)C(O)(CCC3(SCC(NC(=O)c4ccccc4)C(=O)O)C(=O)c4c(O)cccc4C(=O)C32O)C1 (centres unmarked) [FR131661]
IC50 [1]: 22 µM

COC(=O)C(CSC12C(=O)c3c(O)cccc3C(=O)C1(O)C1(O)C(=O)C=C(C)CC1(O)CC2O)NC(C)=O (centres unmarked) [FR129795]
IC50 [1]: 2.73 µM

CC1=CC(=O)C2(O)C(O)(CCC3(SCC(N)C(=O)O)C(=O)c4c(O)cccc4C(=O)C32O)C1 (centres unmarked) [FR131132]
IC50 [1]: 147 µM
Solubility (Solubility; chloroform): insoluble
Solubility (Solubility; ethanol): sparingly soluble
Solubility (Solubility; methanol): sparingly soluble
Solubility (Solubility; n-hexane): insoluble
Solubility (Solubility; water): sparingly soluble

CC1=CC(=O)C2(O)C(O)(C1)CC(O)C1(SCC(N)C(=O)O)C(=O)c3c(O)cccc3C(=O)C12O (centres unmarked) [FR134851]
IC50 [1]: 20.7 µM
Solubility (Solubility; chloroform): insoluble
Solubility (Solubility; ethanol): soluble
Solubility (Solubility; methanol): soluble
Solubility (Solubility; n-hexane): insoluble
Solubility (Solubility; water): sparingly soluble

COC(=O)[C@H](Cc1c[nH]c2ccccc12)NC(=O)C(CSC12CCC3(O)CC(C)=CC(=O)C3(O)C1(O)C(=O)c1cccc(O)c1C2=O)NC(C)=O (some centres unmarked) [FR134762]
IC50 [1]: 11.9 µM

CC[C@H](C)[C@H](NC(=O)C(CSC12CCC3(O)CC(C)=CC(=O)C3(O)C1(O)C(=O)c1cccc(O)c1C2=O)NC(C)=O)C(=O)N[C@@H](Cc1c[nH]c2ccccc12)C(=O)OC (some centres unmarked) [FR134763]
IC50 [1]: 37.2 µM

CC1=CC(=O)C2(O)C(O)(CCC3(SCC(NC(=O)C(C)C)C(=O)O)C(=O)c4c(O)cccc4C(=O)C32O)C1 (centres unmarked) [FR131667]
IC50 [1]: 106 µM

COC(=O)C(CSC12C(=O)c3c(OC(C)=O)cccc3C(=O)C1(O)C1(O)C(=O)C=C(C)CC1(O)CC2OC(C)=O)NC(C)=O (centres unmarked) [FR129797]
IC50 [1]: 10.3 µM

CCCCCC(=O)NC(CSC12CCC3(O)CC(C)=CC(=O)C3(O)C1(O)C(=O)c1cccc(O)c1C2=O)C(=O)O (centres unmarked) [FR131668]
IC50 [1]: 17 µM

CC[C@H](C)[C@H](NC(=O)C(CSC12CCC3(O)CC(C)=CC(=O)C3(O)C1(O)C(=O)c1cccc(O)c1C2=O)NC(C)=O)C(=O)N[C@@H](Cc1c[nH]c2ccccc12)C(=O)O (some centres unmarked) [FR134764]
IC50 [1]: 12 µM

COC(=O)C(CSC12CCC3(OC(C)=O)CC(C)=CC(=O)C3(OC(C)=O)C1(OC(C)=O)C(=O)c1cccc(OC(C)=O)c1C2=O)NC(C)=O (centres unmarked) [FR134625]
IC50 [1]: 356 µM

CC(=O)NC(CSC12C(=O)c3c(O)cccc3C(=O)C1(O)C1(O)C(=O)C=C(C)CC1(O)CC2O)C(=O)O (centres unmarked) [FR901367]
IC50 [1]: 0.672 µM
competition with ^125 I-endothelin for binding to porcine aorta membrane fractions ([1]; result in words): competes with ^125 I-endothelin for binding
inhibition at 100 µM [2]: 75%
inhibition at 10 µM [2]: 38.6%
Solubility (Solubility; acetone): sparingly soluble
Solubility (Solubility; ethanol): soluble
Solubility (Solubility; ethyl acetate): sparingly soluble
Solubility (Solubility; methanol): soluble
Solubility (Solubility; n-hexane): insoluble
Solubility (Solubility; water): sparingly soluble
